Measured values: ChEMBL document CHEMBL3091358, “Structures of human acetylcholinesterase bound to dihydrotanshinone I and territrem B show peripheral site flexibility” (ACS Med Chem Lett, 2013)

How the values were obtained:
Acetylcholinesterase [1] = biological target: T1, Acetylcholinesterase (Homo sapiens, UniProt P22303); experiment: Inhibition of acetylcholinesterase (unknown origin)
Acetylcholinesterase [2] = biological target: T1, Acetylcholinesterase; experiment: Inhibition of human acetylcholinesterase

T1 sequence (P22303 whole entry): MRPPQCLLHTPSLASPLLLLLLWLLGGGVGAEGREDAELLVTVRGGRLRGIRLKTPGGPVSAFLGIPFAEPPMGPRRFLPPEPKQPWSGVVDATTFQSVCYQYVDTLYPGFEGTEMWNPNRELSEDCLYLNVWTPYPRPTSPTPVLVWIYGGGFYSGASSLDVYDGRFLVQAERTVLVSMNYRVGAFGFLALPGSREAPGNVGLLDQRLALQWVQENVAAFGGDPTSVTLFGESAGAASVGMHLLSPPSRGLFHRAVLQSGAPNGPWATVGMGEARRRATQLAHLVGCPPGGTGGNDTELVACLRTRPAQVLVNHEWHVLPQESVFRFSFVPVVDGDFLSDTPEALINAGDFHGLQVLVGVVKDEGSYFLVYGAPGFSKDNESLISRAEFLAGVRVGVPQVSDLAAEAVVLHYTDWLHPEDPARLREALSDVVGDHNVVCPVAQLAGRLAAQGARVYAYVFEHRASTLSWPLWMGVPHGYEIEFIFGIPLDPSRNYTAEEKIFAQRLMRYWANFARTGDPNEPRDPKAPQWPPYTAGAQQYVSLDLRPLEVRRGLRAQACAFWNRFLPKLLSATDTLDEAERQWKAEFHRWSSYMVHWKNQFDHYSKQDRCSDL

Work on Cc1coc2c1C(=O)C(=O)c1c-2ccc2c(C)cccc12 [TANSHINONE I] yielded an IC50 (Acetylcholinesterase [1]) greater than 50 µM.

Cc1cccc2c3c(ccc12)C1=C(C(=O)C3=O)[C@@H](C)CO1 [DIHYDROTANSHINONE I] gave an IC50 (Acetylcholinesterase [1]) of 1 µM and a Ki (Acetylcholinesterase [2]) of 0.6 µM.

In the case of Cc1coc2c1C(=O)C(=O)c1c-2ccc2c1CCCC2(C)C [TANSHINONE IIA], the IC50 (Acetylcholinesterase [1]) is reported as greater than 140 µM.
